# Measurements reported in PubChem BioAssay (NCI).
#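 Five concentrations, 48 hours, 96-well plates. GI50 = concentration required for 50% inhibition of growth. TGI: total growth inhibition.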
# Columns and labels:
# Assay in all cases: inhibition of tumour cell growth, NCI panel, 48 h
# HCC-2998 colon = system: HCC-2998 colon
# MCF7 breast = system: MCF7 breast
# K-562 leukemia = system: K-562 leukemia
# HCT-15 colon = system: HCT-15 colon
# MDA-MB-231 breast = system: MDA-MB-231 breast
# MDA-MB-435 = system: MDA-MB-435
# SK-OV-3 ovarian = system: SK-OV-3 ovarian
# HS 578T breast = system: HS 578T breast
# LOX IMVI melanoma = system: LOX IMVI melanoma
# 786-0 renal = system: 786-0 renal
# M14 melanoma = system: M14 melanoma
# HOP-92 NSCLC = system: HOP-92 NSCLC
# DU-145 prostate = system: DU-145 prostate
# SW-620 colon = system: SW-620 colon
# SK-MEL-2 melanoma = system: SK-MEL-2 melanoma
# U251 CNS = system: U251 CNS
# A549 NSCLC = system: A549 NSCLC
# SNB-19 CNS = system: SNB-19 CNS
# UO-31 renal = system: UO-31 renal
# NCI/ADR-RES ovarian = system: NCI/ADR-RES ovarian
# RXF 393 renal = system: RXF 393 renal
# A498 renal = system: A498 renal
# SNB-75 CNS = system: SNB-75 CNS
# NCI-H226 lung = system: NCI-H226 lung
# NCI-H23 lung = system: NCI-H23 lung
# SF-268 CNS = system: SF-268 CNS
# HCT-116 colon = system: HCT-116 colon
# EKVX NSCLC = system: EKVX NSCLC
# HT29 colon = system: HT29 colon
smiles,measurement,setting,value
Cc1ccc(C(CC(=O)c2ccccc2)C(C(=O)c2ccccc2)C(c2ccc(C)cc2)C2C(=O)NC(=S)NC2=O)cc1 (configuration not stated),TGI,HCC-2998 colon,> 50 µM
same,GI50,MCF7 breast,10.6 µM
same,TGI,MCF7 breast,> 50 µM
same,GI50,K-562 leukemia,26.7 µM
same,TGI,K-562 leukemia,> 50 µM
same,GI50,HCT-15 colon,17 µM
same,TGI,HCT-15 colon,> 50 µM
same,GI50,MDA-MB-231 breast,9.5 µM
same,TGI,MDA-MB-231 breast,> 50 µM
same,GI50,MDA-MB-435,14.6 µM
same,TGI,MDA-MB-435,> 50 µM
same,GI50,SK-OV-3 ovarian,> 50 µM
same,TGI,SK-OV-3 ovarian,> 50 µM
same,GI50,HS 578T breast,21.7 µM
same,TGI,HS 578T breast,> 50 µM
same,GI50,LOX IMVI melanoma,17 µM
same,TGI,LOX IMVI melanoma,> 50 µM
same,GI50,786-0 renal,26.2 µM
same,TGI,786-0 renal,> 50 µM
same,GI50,M14 melanoma,27.2 µM
same,TGI,M14 melanoma,> 50 µM
same,GI50,HOP-92 NSCLC,11 µM
same,TGI,HOP-92 NSCLC,> 50 µM
same,GI50,DU-145 prostate,18.5 µM
same,TGI,DU-145 prostate,> 50 µM
same,GI50,SW-620 colon,19.4 µM
same,TGI,SW-620 colon,> 50 µM
same,GI50,SK-MEL-2 melanoma,7.96 µM
same,TGI,SK-MEL-2 melanoma,> 50 µM
same,GI50,U251 CNS,16.3 µM
same,TGI,U251 CNS,> 50 µM
same,GI50,A549 NSCLC,12.8 µM
same,TGI,A549 NSCLC,> 50 µM
same,GI50,SNB-19 CNS,25.1 µM
same,TGI,SNB-19 CNS,> 50 µM
same,GI50,UO-31 renal,6.93 µM
same,TGI,UO-31 renal,29.3 µM
same,GI50,NCI/ADR-RES ovarian,8.05 µM
same,TGI,NCI/ADR-RES ovarian,> 50 µM
same,GI50,RXF 393 renal,30.3 µM
same,TGI,RXF 393 renal,> 50 µM
same,GI50,A498 renal,18.3 µM
same,TGI,A498 renal,> 50 µM
same,GI50,SNB-75 CNS,> 50 µM
same,TGI,SNB-75 CNS,> 50 µM
same,GI50,NCI-H226 lung,14.9 µM
same,TGI,NCI-H226 lung,> 50 µM
same,GI50,NCI-H23 lung,15.1 µM
same,TGI,NCI-H23 lung,> 50 µM
same,GI50,SF-268 CNS,16.8 µM
same,TGI,SF-268 CNS,> 50 µM
same,GI50,HCT-116 colon,19 µM
same,TGI,HCT-116 colon,> 50 µM
same,GI50,EKVX NSCLC,19.5 µM
same,TGI,EKVX NSCLC,> 50 µM
same,GI50,HT29 colon,28.1 µM
same,TGI,HT29 colon,> 50 µM
